{"source": "paper PMC4774911", "about": "“Biochemical Screening of Five Protein Kinases from Plasmodium falciparum against 14,000 Cell-Active Compounds” (PLoS ONE, 2016)", "test_in_all_cases": "biochemical", "design_in_all_cases": "endogenous in cells; host or cells: K562 cell extract; species or system K562 (extract); replicate k of n = 2 (each experiment ID is one independent experiment; two experiment IDs per compound)", "conditions_in_all_cases": "read-out: KDapp", "key": {"[1]": {"target": "T1, MASTL (Homo sapiens, UniProt Q96GX5)", "T1 sequence (Q96GX5 1-879)": "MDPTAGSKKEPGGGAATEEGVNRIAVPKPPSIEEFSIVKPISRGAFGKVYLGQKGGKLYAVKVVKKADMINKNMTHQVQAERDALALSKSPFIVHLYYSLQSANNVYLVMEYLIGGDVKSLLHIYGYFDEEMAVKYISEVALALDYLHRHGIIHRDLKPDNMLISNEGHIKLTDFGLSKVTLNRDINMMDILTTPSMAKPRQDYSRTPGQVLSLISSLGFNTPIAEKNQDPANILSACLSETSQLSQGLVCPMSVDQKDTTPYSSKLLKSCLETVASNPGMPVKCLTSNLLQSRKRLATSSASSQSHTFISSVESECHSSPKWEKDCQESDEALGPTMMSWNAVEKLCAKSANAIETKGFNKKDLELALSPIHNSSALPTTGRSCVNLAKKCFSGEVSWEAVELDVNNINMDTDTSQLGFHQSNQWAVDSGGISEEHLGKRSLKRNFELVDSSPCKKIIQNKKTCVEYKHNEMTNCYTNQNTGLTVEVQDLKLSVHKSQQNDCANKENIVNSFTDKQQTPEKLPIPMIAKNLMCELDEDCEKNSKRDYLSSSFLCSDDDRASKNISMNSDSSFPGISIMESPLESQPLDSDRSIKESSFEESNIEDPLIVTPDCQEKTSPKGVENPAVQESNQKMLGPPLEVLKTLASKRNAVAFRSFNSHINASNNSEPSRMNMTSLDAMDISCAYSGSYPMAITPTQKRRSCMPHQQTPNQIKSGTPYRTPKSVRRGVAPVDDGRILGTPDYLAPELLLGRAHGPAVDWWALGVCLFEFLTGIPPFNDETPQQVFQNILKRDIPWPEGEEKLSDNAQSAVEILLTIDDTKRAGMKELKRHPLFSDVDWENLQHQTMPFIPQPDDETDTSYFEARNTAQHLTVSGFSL"}, "[2]": {"target": "T2, IKBKE (Homo sapiens, UniProt Q14164)", "T2 sequence (Q14164 1-716)": "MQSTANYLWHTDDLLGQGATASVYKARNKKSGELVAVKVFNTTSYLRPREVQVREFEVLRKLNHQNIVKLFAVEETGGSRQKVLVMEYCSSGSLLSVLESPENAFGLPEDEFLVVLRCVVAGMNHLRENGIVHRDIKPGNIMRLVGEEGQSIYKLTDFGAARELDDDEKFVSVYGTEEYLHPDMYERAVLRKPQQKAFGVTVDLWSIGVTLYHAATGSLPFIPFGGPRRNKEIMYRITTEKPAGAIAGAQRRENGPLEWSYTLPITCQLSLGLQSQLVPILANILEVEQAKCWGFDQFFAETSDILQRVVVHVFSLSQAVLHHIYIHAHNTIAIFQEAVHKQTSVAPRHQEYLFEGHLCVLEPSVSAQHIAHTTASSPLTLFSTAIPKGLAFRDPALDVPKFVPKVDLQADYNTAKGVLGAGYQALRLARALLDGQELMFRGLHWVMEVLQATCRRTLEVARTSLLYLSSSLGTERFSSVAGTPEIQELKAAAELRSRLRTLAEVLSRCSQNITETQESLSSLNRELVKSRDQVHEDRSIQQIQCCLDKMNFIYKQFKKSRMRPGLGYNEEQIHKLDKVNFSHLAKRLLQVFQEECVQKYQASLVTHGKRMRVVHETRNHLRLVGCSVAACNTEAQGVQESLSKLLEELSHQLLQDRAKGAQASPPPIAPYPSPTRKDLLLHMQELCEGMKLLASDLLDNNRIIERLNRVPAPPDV"}, "[3]": {"target": "T3, TEC (Homo sapiens, UniProt P42680)", "T3 sequence (P42680 1-631)": "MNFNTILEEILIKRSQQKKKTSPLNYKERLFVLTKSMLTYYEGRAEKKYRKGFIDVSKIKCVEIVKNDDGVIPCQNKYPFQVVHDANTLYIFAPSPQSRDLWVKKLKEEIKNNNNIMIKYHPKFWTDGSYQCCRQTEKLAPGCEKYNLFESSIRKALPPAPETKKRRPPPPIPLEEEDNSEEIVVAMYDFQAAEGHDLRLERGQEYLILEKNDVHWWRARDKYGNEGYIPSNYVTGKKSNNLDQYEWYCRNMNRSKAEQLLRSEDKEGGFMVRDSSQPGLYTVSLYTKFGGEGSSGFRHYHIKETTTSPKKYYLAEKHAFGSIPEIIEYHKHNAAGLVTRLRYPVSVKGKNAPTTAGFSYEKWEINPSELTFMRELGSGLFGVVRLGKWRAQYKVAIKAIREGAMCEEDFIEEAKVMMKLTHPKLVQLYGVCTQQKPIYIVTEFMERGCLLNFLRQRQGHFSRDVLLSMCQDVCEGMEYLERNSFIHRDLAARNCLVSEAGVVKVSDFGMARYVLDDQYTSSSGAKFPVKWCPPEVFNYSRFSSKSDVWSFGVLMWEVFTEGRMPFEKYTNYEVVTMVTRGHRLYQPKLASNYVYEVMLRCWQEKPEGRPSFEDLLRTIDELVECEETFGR"}, "[4]": {"target": "T4, PRKX (Homo sapiens, UniProt P51817)", "T4 sequence (P51817 1-358)": "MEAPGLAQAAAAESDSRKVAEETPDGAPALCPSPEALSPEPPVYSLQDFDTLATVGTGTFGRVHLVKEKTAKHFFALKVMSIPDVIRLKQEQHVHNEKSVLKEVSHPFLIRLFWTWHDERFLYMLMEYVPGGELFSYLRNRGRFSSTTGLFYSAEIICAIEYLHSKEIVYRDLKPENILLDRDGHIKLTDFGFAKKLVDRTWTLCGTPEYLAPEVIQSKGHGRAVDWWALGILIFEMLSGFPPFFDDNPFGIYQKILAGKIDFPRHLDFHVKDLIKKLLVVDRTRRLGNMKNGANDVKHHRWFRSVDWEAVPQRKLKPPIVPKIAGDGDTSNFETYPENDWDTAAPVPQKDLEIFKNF"}}, "note": "Where “and” joins values, the source holds several entries; their conditions need not be identical. Identical values can stand only once.", "data": [{"smiles": "CN1CCN(c2ccc(Nc3ncc(C#N)c(Nc4ccccc4C(N)=O)n3)cc2)CC1.Cl", "note": "[TCMDC-134116]", "values": [{"measurement": "Kd", "setting": "[1]", "value": "274 nM and 597 nM"}, {"measurement": "Kd", "setting": "[2]", "value": 954, "unit": "nM"}, {"measurement": "Kd", "setting": "[3]", "value": "137 nM and 146 nM"}, {"measurement": "Kd", "setting": "[4]", "value": 1030, "unit": "nM"}]}]}
